Several values for one entry are separate records, joined by “and”; a condition that tells them apart may be missing. Equal entries are not always repeated. Where two headings read alike, the source gives them in different places. Where a SMILES comes first, the peptide text is derived from it. The star is where a group is joined. βNA = c1ccc2cc(N*)ccc2c1
What was measured:
galectin-3 [1] = target: T1, galectin-3 (Homo sapiens, UniProt P17931); experiment: GPN-induced galectin-3 accumulation (puncta) in JIMT-1 breast cancer cells; assay type: cell-based; parameters: In the intracellular assay, in contrast, only endogenous galectin was present; endogenous in cells; host or cells: JIMT-1 breast cancer cells
Experimental: The total number of galectin-3 puncta and nuclei in the microscopy images were quantified using the software ImageJ.
Cells were seeded in multi-well plates with sterile glass coverslips placed in each well and allowed to adhere to the cell culture surface for at least 24 hours. Then the cells were pre-treated with the different galectin-3 inhibitors at different concentrations (or DMSO as control) for 15 minutes or 24 hours followed by addition of the lysosomal damaging peptide GPN[42] and incubated another 13 minutes, with the inhibitors still present. The 13-minute incubation with GPN and 15-minute pre-incubation with inhibitors were done in DMEM/Ham’s F12 medium with 15 mM HEPES buffer (without serum), whereas the 24-hour incubation with inhibitors were performed in fully supplemented DMEM/Ham’s F12 medium (as described under Cell culture).
After treatment with GPN, the cells were fixed in 3.7% (v/v) formaldehyde in phosphate-buffered saline (PBS) for 15 minutes, permeabilized and blocked using 1% (v/v) TWEEN 20 and 5% (w/v) BSA in PBS for 30 minutes, then incubated with primary and secondary antibodies for one hour each (washed with PBS in between). Primary and secondary antibodies for galectin-3 staining were a rat anti-mouse galectin-3 IgG antibody[50],[51] […] All antibodies were diluted in 0.05% TWEEN 20 and 5% BSA in PBS. […] The coverslips were mounted on glass slides using Mowiol® 4–88 and left at 8 °C overnight before further examination. For imaging of the cells, a LSM-510 confocal laser scanning microscope (Carl Zeiss Microscopy GmbH, Oberkochen, Germany), equipped with a Hamamatsu R6357 photomultiplier (Hamamatsu Photonics K.K., Hamamatsu, Japan), was used. […] Maximum intensity projections of each picture obtained were analyzed with ImageJ 1.47 v (Rasband, W.S., ImageJ, U. S. National Institutes of Health, Bethesda, Maryland, USA) to quantify the number of galectin-3 dots and the number of nuclei in each picture. The quantification of particles (i.e. galectin-3 puncta/nucleus) was carried out using batch processing in the software, where a single macro (including parameters such as image thresholds, particle size and circularity) was used for all images obtained from a single experiment, this to reduce user bias and time consumption.

[2] = Caco-2 permeability assay; conditions: human, Caco-2, pH 7.4
HCC1937 cells = experiment: MTT cell viability assay, HCC1937; assay type: cell-based; conditions: HCC1937, 72 hours, 0.04–40 µM for 1 and 2, 0.04–20 µM for 3
Experimental: (§1) The MTT (3-[4,5-dimethylthiazol-2-yl]−2,5-diphenyltetrazolium bromide) assays were performed as previously described. […] The cells were incubated for 24 hours before addition of galectin-3 inhibitors. The inhibitors were diluted in PBS from their respective stock solution in DMSO (see Galectin-3 inhibitors) and used at final concentrations ranging from 0.04 to 40 μM. DMSO was adjusted to make the final DMSO concentration 0.2% for all inhibitor concentrations, including the control sample (no inhibitor). After 72 hours of treatment, 20 μl of 5 mg/ml MTT solution (in PBS) was added to each well and incubation continued for 1 hour at 37 °C. Thereafter, the MTT containing medium was removed and 100 μl of DMSO was added per well and the plates swirled gently for 10 minutes to dissolve the cells and the purple formazan product precipitate. Absorbance was monitored at 540 nm using a Labsystems iEMS Reader MF (Labsystems Oy, Helsinki, Finland) and the software DeltaSoft II v.4.14 (Biometallics Inc., Princeton, NJ, USA).

JIMT-1 cells = experiment: MTT cell viability assay, JIMT-1; assay type: cell-based; conditions: JIMT-1, 72 hours, 0.04–40 µM for 1 and 2, 0.04–20 µM for 3
Experimental: as §1

MCF-7 cells = experiment: MTT cell viability assay, MCF-7; assay type: cell-based; conditions: MCF-7, 72 hours, 0.04–40 µM for 1 and 2, 0.04–20 µM for 3
Experimental: as §1

obese mice = system: obese mice; parameters: method as in PMID 27814523; conditions: type 2 diabetes study; cited from earlier work
galectin-1 = system: galectin-1; parameters: method as in Delaine et al., Salameh et al., Peterson et al.; conditions: lower compared to galectin-3; ref Delaine et al., Salameh et al., Peterson et al.; cited from earlier work
galectin-3 [3] = target: T1, galectin-3; experiment: Fluorescence anisotropy (FA) competitive assay, affinity for galectin-3; assay type: binding; parameters: made in house; host or cells: E. coli BL21 Star (DE3)
Excerpt: A FA assay was used to determine the affinity of recombinant human galectin-3 and the three inhibitors in solution. The use of the FA assay for this purpose has previously been described in detail by Sörme et al.[49]. In short, increasing concentrations of galectins were first titered against a fixed concentration of the fluorescent saccharide probe 3,3′-dideoxy-3-[4-(fluorescein-5-yl-carbonylaminomethyl)-1H-1,2,3-triazol-1-yl]−3′-[4-(3-fluorophenyl)-1H-1,2,3-triazol-1-yl]-1,1′-sulfanediyl-di-β-D-galactopyranoside (4 nM) (described in Peterson et al.[28]), to obtain binding curves in which the anisotropy value increases from a value for probe free in solution (A0) to a value where all probe molecules are bound to galectin-3 (Amax). Binding curves were constructed for each test condition used in this study (i.e. different buffer, temperature and pH, see below) (Fig. S4). To establish the dissociation constant (Kd) values between the inhibitors and galectin-3, a competitive variant of the FA assay was utilized. In this study, increasing concentrations of the inhibitors were titered against fixed concentrations of galectin-3 and probe. By measuring the anisotropy values for the different inhibitor concentrations, together with the values for Amax and A0, the Kd values could be calculated according to the equations presented in Sörme et al.[49].
The experiments were either performed in PBS (pH 7.2), in 50 mM phosphate buffer with 100 mM NaCl (pH 6, 7, or 8), or in 50 mM acetate buffer with 100 mM NaCl (pH 5). All buffers were supplemented with 0.1 µM BSA (to not lose any protein due to absorbance to plate surfaces). For the experiments performed in PBS (pH 7.2), a concentration of 20 nM galectin-3 was used (at room temperature and 4 °C). For the experiments done in phosphate/acetate buffer, galectin-3 was used at concentrations of 400 nM (pH 5), 100 nM (pH 6), or 50 nM (pH 7 and 8).
The emitted light from the fluorescent saccharide probes was measured using a PheraStarFS plate reader and PHERAstar Mars version 2.10 R3 software (BMG, Offenburg, Germany). […] The anisotropy values for each data point were read in duplicate wells of 96-well plates (at a total volume of 140 µl) 30 minutes after the addition of all solutions (for equilibrium to arise).

galectin-3 [4] = target: T1, galectin-3; experiment: Inhibition of fluorescein-tagged galectin-3 binding to the cell surface of CHO cells (flow cytometry); assay type: cell-based; parameters: made in house; host or cells: E. coli BL21 Star (DE3); conditions: 0.5 µM fluorescein-tagged galectin-3, 4 °C, 1 hour

T1 sequence (P17931 whole entry): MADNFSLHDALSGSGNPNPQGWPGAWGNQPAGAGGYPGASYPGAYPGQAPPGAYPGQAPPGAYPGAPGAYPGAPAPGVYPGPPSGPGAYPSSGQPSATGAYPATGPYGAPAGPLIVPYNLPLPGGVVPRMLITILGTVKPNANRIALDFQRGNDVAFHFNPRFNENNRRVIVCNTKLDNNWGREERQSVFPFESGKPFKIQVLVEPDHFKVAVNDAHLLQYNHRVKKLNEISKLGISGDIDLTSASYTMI

Row | Compound | mean number of galectin-3 puncta/nucleus (galectin-3 [1]; JIMT-1 cells, 0.3 mM GPN for 13 minutes, n = 92) | Papp A→B [2] [×10⁻⁶ cm/s] | Papp B→A [2] [×10⁻⁶ cm/s] | inhibition of galectin-3 accumulation (extent) (galectin-3 [1]; 15 minutes pre-treatment, high concentrations 50–100 µM) | inhibition of galectin-3 accumulation (extent) (galectin-3 [1]; 24 hours pre-treatment, up to 10 µM) | IC50 (galectin-3 [1]; JIMT-1 cells, 15 minutes pre-incubation, read-out: IC50, inhibition of GPN-induced galectin-3 accumulation) [nM] | cell viability (MTT) (HCC1937 cells) | cell viability (MTT) (JIMT-1 cells) | cell viability (MTT) (MCF-7 cells) | glucose tolerance (obese mice) | insulin resistance (obese mice) | affinity for galectin-1 (galectin-1) | Kd (galectin-3 [3]; as in Fig. 1b, restated in legend of Fig. S1, read-out: Kd value for galectin-3) [nM] | Kd (galectin-3 [3]; galectin-3 CRD, FA assay, PBS pH 7.2, room temperature, read-out: Kd value for galectin-3) | Kd (galectin-3 [3]; pH 5, acetate buffer with NaCl, read-out: Kd value for galectin-3 at pH 5) [nM] | fold lower affinity for galectin-3 compared to 1 (galectin-3 [3]; ratio of Kd values) [fold] | IC50 (galectin-3 [4]) [nM]
1 | NCC(=O)N[C@@H](Cc1ccccc1)C(=O)Nc1ccc2ccccc2c1 [GPN, glycyl-L-phenylalanine 2-naphthylamide, reference compound] (H-Gly-Phe-βNA) | 4.81 ± 0.23 |  |  |  |  |  |  |  |  |  |  |  |  |  |  |  | 
2 | OC[C@H]1O[C@H](Sc2ccc(Cl)c(Cl)c2)[C@H](O)[C@@H](n2cc(-c3cc(F)c(F)c(F)c3)nn2)[C@H]1O [compound 2] |  | 14.7 | 16.2 |  |  |  |  |  |  |  |  |  |  |  |  |  | 
3 | CCCCNC(=O)c1cn(C2C(O)C(CO)OC(SC3OC(CO)C(O)C(n4cc(C(=O)NCCCC)nn4)C3O)C2O)nn1 (stereo not shown) [compound 3] |  | < 0.3 | < 0.07 | complete inhibition of galectin-3 accumulation could not be reached | poor inhibitor of galectin-3 accumulation | ~10000 | no apparent change in cell viability | no apparent change in cell viability | no apparent change in cell viability | improved glucose tolerance | decreased insulin resistance | high affinity | 35.8 | 36 nM and 35.8 nM | 778 | > 10 | 10000
